Source: ChEMBL document CHEMBL1201862, “PubChem BioAssay data set” (2004)
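1) Cells in 96-well plates. 2) Compound, 48 h, 5 concentrations. 3) Linear interpolation between surrounding doses. 4) Unreached endpoint = highest concentration. GI50 is the concentration that inhibits growth by half.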 Active and inactive are the calls of the source. Cut-off read from the data, not from the text of the source: active = GI50 up to about 1.1 µM and inactive = higher. Square brackets hold non-standard residues; d marks the D form. Peptide text beside a SMILES is read from it. Phe(4-Cl) = N[CH](Cc1ccc(Cl)cc1)C(=O)O; 2Nal = N[CH](Cc1ccc2ccccc2c1)C(=O)O; 3Pal = N[CH](Cc1cccnc1)C(=O)O

How the values were obtained:
Assay in all cases: NCI anticancer screen, dose series, 48 h
EKVX = system: EKVX
HCC 2998 = system: HCC 2998
UACC-257 = system: UACC-257
SK-MEL-5 = system: SK-MEL-5
SK-MEL-2 = system: SK-MEL-2
786-0 = system: 786-0
MCF7 = system: MCF7
RXF 393 = system: RXF 393
OVCAR-8 = system: OVCAR-8
HOP-62 = system: HOP-62
SF-268 = system: SF-268
SF-295 = system: SF-295
SNB-75 = system: SNB-75
SK-MEL-28 = system: SK-MEL-28
MDA-N = system: MDA-N
A549 = system: A549
UACC-62 = system: UACC-62
SN12C = system: SN12C
SNB-19 = system: SNB-19

Row | SMILES | GI50 (EKVX) | GI50 (HCC 2998) | GI50 (UACC-257) | GI50 (SK-MEL-5) | GI50 (SK-MEL-2) | GI50 (786-0) | GI50 (MCF7) | GI50 (RXF 393) | GI50 (OVCAR-8) | GI50 (HOP-62) | GI50 (SF-268) | GI50 (SF-295) | GI50 (SNB-75) | GI50 (SK-MEL-28) | GI50 (MDA-N) | GI50 (A549) | GI50 (UACC-62) | GI50 (SN12C) | GI50 (SNB-19)
1 | CC1=NN(c2cccc(Cl)c2)C(=N/c2nc3ccccc3s2)/C1=C\c1ccccc1O | 64.9 µM (inactive) | 19.6 µM (inactive) | 21.9 µM (inactive) | 19.7 µM (inactive) | 18.9 µM (inactive) | 30.1 µM (inactive) | 29.3 µM (inactive) | 38.1 µM (inactive) | 27.4 µM (inactive) | 29.6 µM (inactive) | 24.2 µM (inactive) | 30.5 µM (inactive) | 25.4 µM (inactive) | 27.4 µM (inactive) | 30.4 µM (inactive) | – | – | – | –
2 | COC1=CC2C(c3cc4ccccc4n3S(=O)(=O)c3ccccc3)CC1CN2C(=O)OCc1ccccc1 (configuration not stated) | 18.9 µM (inactive) | 36.5 µM (inactive) | 34.8 µM (inactive) | 25.6 µM (inactive) | 23.6 µM (inactive) | 33.9 µM (inactive) | 39.9 µM (inactive) | 14.4 µM (inactive) | 50.8 µM (inactive) | 40.4 µM (inactive) | – | 25 µM (inactive) | 1.6 µM (inactive) | – | 34.5 µM (inactive) | 20.5 µM (inactive) | 29.8 µM (inactive) | 32 µM (inactive) | –
3 | O=C(Nc1nc2ccc([N+](=O)[O-])cc2[n+]([O-])n1)C(F)(F)F | – | 49.8 µM (inactive) | 16.9 µM (inactive) | 12.5 µM (inactive) | 20.7 µM (inactive) | 36.1 µM (inactive) | 20 µM (inactive) | 54.8 µM (inactive) | 21 µM (inactive) | – | 62.4 µM (inactive) | 27.9 µM (inactive) | 46.2 µM (inactive) | 47.2 µM (inactive) | 18.7 µM (inactive) | 24.6 µM (inactive) | 21.3 µM (inactive) | 29.4 µM (inactive) | 49.8 µM (inactive)
4 | N#Cc1ccc(/C=C2\Cc3ccccc3C2=O)cc1 | 46.8 µM (inactive) | > 100 µM (inactive) | 75.2 µM (inactive) | > 100 µM (inactive) | – | > 100 µM (inactive) | > 100 µM (inactive) | > 100 µM (inactive) | > 100 µM (inactive) | > 100 µM (inactive) | > 100 µM (inactive) | > 100 µM (inactive) | > 100 µM (inactive) | > 100 µM (inactive) | > 100 µM (inactive) | > 100 µM (inactive) | > 100 µM (inactive) | > 100 µM (inactive) | > 100 µM (inactive)
5 | C=CC[C@H]1[C@H](O[Si](C)(C)C(C)(C)C)C=CC(=O)[C@@H]1CC(=O)N(Cc1ccccc1)Cc1ccccc1 | 12.9 µM (inactive) | 20.3 µM (inactive) | 11.5 µM (inactive) | 7.83 µM (inactive) | 14.8 µM (inactive) | 17.5 µM (inactive) | 19.5 µM (inactive) | 6.15 µM (inactive) | 16.1 µM (inactive) | 25.6 µM (inactive) | 6.55 µM (inactive) | 15.1 µM (inactive) | – | 49.5 µM (inactive) | 16.4 µM (inactive) | 20.5 µM (inactive) | 13.5 µM (inactive) | 18.8 µM (inactive) | 29.6 µM (inactive)
6 | [O-]c1c[n+](-c2ccccc2)no1 | > 100 µM (inactive) | > 100 µM (inactive) | > 100 µM (inactive) | > 100 µM (inactive) | > 100 µM (inactive) | > 100 µM (inactive) | > 100 µM (inactive) | > 100 µM (inactive) | – | > 100 µM (inactive) | > 100 µM (inactive) | > 100 µM (inactive) | > 100 µM (inactive) | > 100 µM (inactive) | > 100 µM (inactive) | > 100 µM (inactive) | > 100 µM (inactive) | > 100 µM (inactive) | > 100 µM (inactive)
7 | Cc1nc(C(N)=S)sc1C(/C=C/c1ccc(Cl)c(Cl)c1)=N/NC(C)(C)C | > 100 µM (inactive) | > 100 µM (inactive) | > 100 µM (inactive) | > 100 µM (inactive) | > 100 µM (inactive) | > 100 µM (inactive) | > 100 µM (inactive) | > 100 µM (inactive) | > 100 µM (inactive) | – | > 100 µM (inactive) | > 100 µM (inactive) | > 100 µM (inactive) | > 100 µM (inactive) | > 100 µM (inactive) | > 100 µM (inactive) | > 100 µM (inactive) | > 100 µM (inactive) | > 100 µM (inactive)
8 | Cc1cn(C2CC(SCCO)C(CO)O2)c(=O)[nH]c1=O (configuration not stated) | > 100 µM (inactive) | > 100 µM (inactive) | > 100 µM (inactive) | – | > 100 µM (inactive) | > 100 µM (inactive) | > 100 µM (inactive) | > 100 µM (inactive) | > 100 µM (inactive) | > 100 µM (inactive) | > 100 µM (inactive) | > 100 µM (inactive) | > 100 µM (inactive) | > 100 µM (inactive) | > 100 µM (inactive) | > 100 µM (inactive) | > 100 µM (inactive) | > 100 µM (inactive) | > 100 µM (inactive)
9 | CC1=NN(c2nc(N)nc(NS(=O)(=O)c3cc(C)c(Cl)cc3S)n2)C(C)(C)C1 | > 10 µM (inactive) | > 10 µM (inactive) | > 10 µM (inactive) | > 10 µM (inactive) | > 10 µM (inactive) | > 10 µM (inactive) | > 10 µM (inactive) | > 10 µM (inactive) | > 10 µM (inactive) | > 10 µM (inactive) | > 10 µM (inactive) | > 10 µM (inactive) | > 10 µM (inactive) | > 10 µM (inactive) | > 10 µM (inactive) | > 10 µM (inactive) | – | > 10 µM (inactive) | > 10 µM (inactive)
10 | CC1(C)Cc2c(cnn2-c2ccc(C(F)(F)F)cc2)-c2[nH]c(-c3ccc(O)cc3)nc21 | 20.4 µM (inactive) | 15.7 µM (inactive) | 16.4 µM (inactive) | 16.9 µM (inactive) | – | 3.32 µM (inactive) | 14.2 µM (inactive) | 3.46 µM (inactive) | 20.8 µM (inactive) | 21.4 µM (inactive) | 9.16 µM (inactive) | 16 µM (inactive) | 8.81 µM (inactive) | 13.7 µM (inactive) | 14.6 µM (inactive) | 12.7 µM (inactive) | 16.2 µM (inactive) | 16.7 µM (inactive) | 16.6 µM (inactive)
11 | CC(=O)NC(Cc1ccc2ccccc2c1)C(=O)NC(Cc1ccc(Cl)cc1)C(=O)NC(Cc1cccnc1)C(=O)NC(CO)C(=O)NC(Cc1ccc(O)cc1)C(=O)NC(CCCN=C(N)N)C(=O)NC(CC(C)C)C(=O)NC(CCCN=C(N)N)C(=O)N1CCCC1C(=O)NC(C)C(N)=O (configuration not stated) (Ac-[2Nal][Phe(4-Cl)][3Pal]SYRLRPA-NH2; configuration not given here) | > 100 µM (inactive) | > 100 µM (inactive) | > 100 µM (inactive) | 94 µM (inactive) | > 100 µM (inactive) | 69.7 µM (inactive) | > 100 µM (inactive) | > 100 µM (inactive) | > 100 µM (inactive) | > 100 µM (inactive) | – | – | 88.9 µM (inactive) | – | > 100 µM (inactive) | > 100 µM (inactive) | 77.4 µM (inactive) | > 100 µM (inactive) | > 100 µM (inactive)
12 | Cc1cc(O)c(C(C)C)cc1CN1CCCCC1 | > 100 µM (inactive) | > 100 µM (inactive) | > 100 µM (inactive) | > 100 µM (inactive) | – | > 100 µM (inactive) | > 100 µM (inactive) | > 100 µM (inactive) | > 100 µM (inactive) | > 100 µM (inactive) | > 100 µM (inactive) | > 100 µM (inactive) | > 100 µM (inactive) | > 100 µM (inactive) | > 100 µM (inactive) | > 100 µM (inactive) | > 100 µM (inactive) | > 100 µM (inactive) | > 100 µM (inactive)
13 | CC(C)Oc1cc2c(cc1O)CC[C@@H]1[C@@H]2CC[C@]2(C)[C@@H](O)CC[C@@H]12 | 12.7 µM (inactive) | 5.26 µM (inactive) | 3.99 µM (inactive) | 3.01 µM (inactive) | – | 4.65 µM (inactive) | 2.25 µM (inactive) | 3.82 µM (inactive) | 8.75 µM (inactive) | 4.15 µM (inactive) | 5.93 µM (inactive) | 3 µM (inactive) | 4.69 µM (inactive) | 8.3 µM (inactive) | 0.424 µM (active) | 5.52 µM (inactive) | 2 µM (inactive) | 5.66 µM (inactive) | 5.31 µM (inactive)
14 | COc1ccc(S(=O)(=O)Nc2ccc(-c3csc(N4C(=O)/C(=C/c5ccccc5[N+](=O)[O-])N=C4c4ccccc4)n3)cc2)cc1Cl | – | 22.9 µM (inactive) | 38.6 µM (inactive) | 43.2 µM (inactive) | 60.5 µM (inactive) | > 100 µM (inactive) | 66.8 µM (inactive) | 50.8 µM (inactive) | 35.3 µM (inactive) | > 100 µM (inactive) | 38.8 µM (inactive) | 47 µM (inactive) | > 100 µM (inactive) | 98.2 µM (inactive) | 60 µM (inactive) | 33 µM (inactive) | 34.3 µM (inactive) | > 100 µM (inactive) | 59 µM (inactive)
15 | O=[N+]([O-])c1ccc2c(c1)C(N1CCN(CCO)CC1)Cc1ccc(F)cc1S2 (configuration not stated) | 11.2 µM (inactive) | 2.58 µM (inactive) | 2.57 µM (inactive) | 1.8 µM (inactive) | – | 12 µM (inactive) | 10.1 µM (inactive) | < 0.01 µM (active) | 11.3 µM (inactive) | 17.1 µM (inactive) | 13.5 µM (inactive) | 4.14 µM (inactive) | 2.05 µM (inactive) | 1.96 µM (inactive) | 11 µM (inactive) | 12.1 µM (inactive) | 2.49 µM (inactive) | 11.5 µM (inactive) | 10.7 µM (inactive)
